Measured values published in patent US6545028B2, “Chemical compounds having ion channel blocking activity for the treatment of immune dysfunction” (NeuroSearch A/S, priority 1997, dated 2003).

How the values were obtained:
T cells = assay: Inhibition of antigen induced T cell proliferation ([^3H]thymidine incorporation); assay type: cell-based; conditions: Antigen (crude Candida albicans extract, 10 μg/ml), 144 hours culture
Experimental: The chemical compounds used according to the invention prevent immunological proliferation by selective inhibition of the Ca^2+-activated K-channels in T- and B-lymphocytes. This effect may be verified using various proliferation assays. In this experiment the proliferative assay described by Ødum et al. [Ødum N, Kanner S B, Ledbetter J A, & Svejgaard A; J. Immunol. 1993 150 (12) 5289-5298] was used.
Assays were performed in culture medium (RPMI 1640; available from Gibco, Grand island, N.Y.) supplemented with 10% pooled human serum, 2 mM L-glutamine, 100 μg/ml penicillin, and 100 μg/ml streptomycin (available from Novo Nordisk, Copenhagen, Denmark) in 96-well round bottom tissue culture plates (available from Nunc, Roskilde, Denmark) with a final volume of 200 μl.
T cells were preincubated for three hours with the test compounds before addition of antigen (crude Candida albicans extract, 10 μg/ml). T cells were cultured at 5×10^4 cells/well for 144 hours. Twelve hours before harvest, [^3H]thymidine ([…]) was added. The cells were harvested onto glass fibre filters, and the [^3H]thymidine incorporation was measured in a scintillation counter. The results were expressed as mean counts per minute (cpm) from triplicate cultures.

[1] = molecular target: human placenta Ca^2+-activated, intermediate conductance potassium channel protein (IKCa) (Homo sapiens, UniProt O15554); assay: Whole cell patch clamp on HEK293 or CHO cells transfected with the human IKCa channel; assay type: cell-based; conditions: 1 μM Clotrimazole added to the bath solution; reversed by washout
Experimental: HEK293 or CHO tissue culture cells were grown in DMEM (Dulbecco's Modified Eagle Medium) supplemented with 10% FCS (foetal calf serum) at 37° C. in 5% CO2. One day prior to transfection, 10^6 cells were plated in a cell culture T25 flask. The following day, cells were transfected using lipofection (20 μL Lipofectamin™, Life Technologies, with 2.5 μg of the plasmid pNS2Z_hIK2 in a total volume of 540 μL). The lipofection mixture was overlaid on the cells and incubated at 37° C. for 5 hours.
The cells were then rinsed with regular media and plated to a 30 mm culture dish. 18-48 hours after, transfected cells were assayed for the presence of Ca^2+-activated, intermediate conductance potassium channel protein by electrophysiological measurements.
Whole cell currents were recorded using a pipette solution of 144 mM KCl, 1 mM EGTA, 9 mM NTA, 1.085 mM CaCl2, 5.54 mM MgCl2, and 10 mM HEPES (pH 7.2) and a bath solution of 144 mM KCl, 2 mM CaCl2, 1 mM MgCl2, 0.01% (w/v) BSA and 10 mM HEPES (pH=7.4). Current traces were recorded from cells containing human Ca^2+-activated, intermediate conductance potassium channels after application of voltage ramps (−100 mV to +100 mV, 200 ms duration).

Row | Structure (SMILES) | T Cell Proliferation (T cells; test compound 1 μM) [cpm × 10^−3] | T Cell Proliferation (T cells; test compound 5 μM) [cpm × 10^−3] | T Cell Proliferation (T cells; test compound 10 μM) [cpm × 10^−3] | Effect on the Ca^2+-activated potassium current [1]
1 | Clc1ccccc1C(c1ccccc1)(c1ccccc1)n1ccnc1 [Clotrimazole, 1-[(2-chlorophenyl)-diphenyl-methyl]-1H-imidazole] | 5.8 | 4.2 | 1.8 | inhibition of the Ca^2+-activated potassium current
2 | CCOC(=O)C1=C(C)NC(C)=C(C(=O)OC)C1c1cccc([N+](=O)[O-])c1 (stereo not shown) [Nitrendipine, 1,4-dihydro-2,6-dimethyl-4-(3-nitrophenyl)pyridine-3,5-dicarboxylic acid ethyl methyl ester] | 5.6 | 3.8 | 4.0 | 
